*1 amine or outer side, *2 acyl side, *3 side chain or, on linkers, in order; H or OH if unused. Where a SMILES comes first, the peptide text is derived from it. Where no end group is shown, it is not given here. [ ]: non-standard residue; d: D form. γGlu = O=C(O)[C@H](CCC(=O)[*:2])N[*:1]; βAsp = O=C(O)[C@H](CC(=O)[*:2])N[*:1]; Cya = N[C@@H](CS(=O)(=O)O)C(=O)O; Cit = NC(=O)NCCC[C@H](N)C(=O)O

One assay has as its target HLA-A*02:01 (Homo sapiens, UniProt P04439, D140Y/D185E/D98H/E176V/E277Q/G131W/G231S/I119V/I121R/I166T/I218V/L300P/L318F/N151K/N90K/P208A/P217A/Q86G/Q94H/R138H/R169H/T345S). Put plainly: HLA-peptide competition binding assay, A*02:01.
Conditions: not given
In turn, `CC(C)C[C@H](NC(=O)[C@H](C)N)C(=O)N[C@@H](Cc1ccc(O)cc1)C(=O)N[C@@H](CC(C)C)C(=O)N[C@H](C(=O)N[C@@H](CS)C(=O)NCC(=O)N[C@@H](CCC(=O)O)C(=O)N[C@@H](CCCNC(N)=O)C(=O)O)C(C)C` came in with an IC50 of 1240 nM.

Regarding LVEALYLVC, the IC50 came to 11800 nM. In turn, HLCGSHLVEA [reference compound] gave an IC50 of 7540 nM. Still for that read-out and setting: in the case of WMRLLPLLA it was 1530 nM. Still for that read-out and setting: in the case of LLSLFSLWL [reference compound] it was 152 nM; in that of `CSCC[C@H](NC(=O)[C@H](Cc1c[nH]c2ccccc12)NC(=O)[C@H](CC(C)C)NC(=O)[C@H](C)NC(=O)[C@@H](N)CCSC)C(=O)N[C@@H](CCCNC(N)=O)C(=O)N[C@@H](CC(C)C)C(=O)N[C@@H](CC(C)C)C(=O)N1CCC[C@H]1C(=O)N[C@@H](CC(C)C)C(=O)O` (H-MALWM[Cit]LLPL-OH), 262 nM; in that of `CC(C)C[C@H](NC(=O)[C@H](Cc1c[nH]cn1)NC(=O)[C@H](CO)NC(=O)CNC(=O)[C@H](CS(=O)(=O)O)NC(=O)[C@H](CC(C)C)NC(=O)[C@@H](N)Cc1c[nH]cn1)C(=O)N[C@H](C(=O)N[C@@H](CCC(=O)O)C(=O)N[C@@H](C)C(=O)O)C(C)C` [HLBGSHLVEA] (H-HL[Cya]GSHLVEA-OH), 6210 nM.

Staying with this assay, now noted: post-translationally modified insulin peptide; competition binding assay; a dash indicates IC50 >40,000 nM; read-out: A*02:01 binding (IC50 nM) Modified.
Regarding `CC(C)C[C@H](NC(=O)[C@H](CC(=O)O)NC(=O)[C@H](CCC(=O)O)NC(=O)[C@H](C)NC(=O)[C@H](CCC(=O)O)NC(=O)[C@@H](N)CCCNC(N)=O)C(=O)N[C@@H](CCC(N)=O)C(=O)N[C@H](C(=O)NCC(=O)O)C(C)C` (H-[Cit]EAEDLQVG-OH; N-terminus and C-terminus assumed), the IC50 was above 40000 nM. The same measure, in the same setting: in the case of `CC[C@H](C)[C@H](NC(=O)CNC(=O)[C@H](CCCNC(N)=O)NC(=O)[C@H](CCCCN)NC(=O)[C@H](CCC(N)=O)NC(=O)[C@H](CC(C)C)NC(=O)[C@@H](N)CO)C(=O)N[C@H](C(=O)N[C@@H](CCC(=O)O)C(=O)N[C@@H](CCC(N)=O)C(=O)O)C(C)C` (H-SLQK[Cit]GIVEQ-OH; N-terminus and C-terminus assumed) it was above 40000 nM; in that of `CC(C)C[C@H](NC(=O)[C@H](Cc1c[nH]cn1)NC(=O)[C@H](CCC(N)=O)NC(=O)[C@@H](N)CC(N)=O)C(=O)N[C@@H](CS(=O)(=O)O)C(=O)NCC(=O)N[C@@H](CO)C(=O)N[C@@H](Cc1c[nH]cn1)C(=O)N[C@@H](CC(C)C)C(=O)N[C@H](C(=O)O)C(C)C` [NQHLBGSHLV] (H-NQHL[Cya]GSHLV-OH; N-terminus and C-terminus assumed), above 40000 nM; in that of `CC[C@H](C)[C@H](NC(=O)CNC(=O)[C@H](CCCNC(N)=O)NC(=O)[C@H](CCCCN)NC(=O)[C@H](CCC(N)=O)NC(=O)[C@H](CC(C)C)NC(=O)[C@@H](N)CO)C(=O)N[C@H](C(=O)N[C@@H](CCC(=O)O)C(=O)O)C(C)C` [SLQKUGIVE] (H-SLQK[Cit]GIVE-OH; N-terminus and C-terminus assumed), above 40000 nM.

Consider `CC(C)C[C@H](NC(=O)[C@H](Cc1c[nH]cn1)NC(=O)CC[C@H](NC(=O)C[C@H](N)C(=O)O)C(=O)O)C(=O)N[C@@H](CS)C(=O)NCC(=O)N[C@@H](CO)C(=O)N[C@@H](Cc1c[nH]cn1)C(=O)N[C@@H](CC(C)C)C(=O)N[C@H](C(=O)O)C(C)C` [OZHLCGSHLV] ({βAsp-γGlu}-HLCGSHLV-OH; N-terminus and C-terminus assumed), for which the IC50 is above 40000 nM. For VDEHLCGSHL, the IC50 is above 40000 nM. LYLVCGERGY: the IC50 was above 40000 nM. On the same count and under the same terms, the result for `C[C@@H](O)[C@H](NC(=O)[C@H](Cc1ccc(O)cc1)NC(=O)[C@H](Cc1ccccc1)NC(=O)[C@H](Cc1ccccc1)NC(=O)CNC(=O)[C@H](CCCNC(N)=O)NC(=O)[C@H](CCC(=O)O)NC(=O)CNC(=O)[C@@H](N)CS)C(=O)N1CCC[C@H]1C(=O)O` (H-CGE[Cit]GFFYTP-OH; N-terminus and C-terminus assumed) reads above 40000 nM; that for `CC(C)C[C@H](NC(=O)[C@H](Cc1c[nH]cn1)NC(=O)[C@H](CCC(N)=O)NC(=O)[C@H](CC(N)=O)NC(=O)[C@@H](NC(=O)[C@@H](N)Cc1ccccc1)C(C)C)C(=O)N[C@@H](CS(=O)(=O)O)C(=O)NCC(=O)N[C@@H](CO)C(=O)N[C@@H](Cc1c[nH]cn1)C(=O)O` [FVNQHLBGSH] (H-FVNQHL[Cya]GSH-OH; N-terminus and C-terminus assumed), above 40000 nM; that for `C[C@H](NC(=O)[C@H](CCC(=O)O)NC(=O)[C@H](CCCNC(N)=O)NC(=O)[C@H](CCCNC(N)=O)NC(=O)[C@@H](NC(=O)[C@H](CCCCN)NC(=O)[C@@H]1CCCN1)[C@@H](C)O)C(=O)N[C@@H](CCC(=O)O)C(=O)N[C@@H](CC(=O)O)C(=O)O` [PKTUUEAED] (H-PKT[Cit][Cit]EAED-OH; N-terminus and C-terminus assumed), above 40000 nM. As for `CC(C)C[C@H](N)C(=O)N[C@H](C(=O)N[C@@H](CS)C(=O)NCC(=O)N[C@@H](CCC(=O)O)C(=O)N[C@@H](CCCNC(N)=O)C(=O)NCC(=O)N[C@@H](Cc1ccccc1)C(=O)N[C@@H](Cc1ccccc1)C(=O)N[C@@H](Cc1ccc(O)cc1)C(=O)O)C(C)C` (H-LVCGE[Cit]GFFY-OH; N-terminus and C-terminus assumed), the IC50 is above 40000 nM.

The assay is the same for the next values; noted with them: post-translationally modified insulin-derived peptide; radiolabeled ligand competition, purified MHC, two-day incubation, three or more independent experiments; read-out: A*02:01 binding, Modified.
In the case of `CC(C)C[C@H](NC(=O)[C@H](Cc1ccc(O)cc1)NC(=O)[C@@H](N)CC(C)C)C(=O)N[C@H](C(=O)N[C@@H](CS)C(=O)NCC(=O)N[C@@H](CCC(=O)O)C(=O)N[C@@H](CCCNC(N)=O)C(=O)NCC(=O)O)C(C)C`, the IC50 worked out at 12500 nM.

For the compound `CSCC[C@H](NC(=O)[C@H](Cc1c[nH]c2ccccc12)NC(=O)[C@H](CC(C)C)NC(=O)[C@H](C)N)C(=O)N[C@@H](CCCNC(N)=O)C(=O)N[C@@H](CC(C)C)C(=O)N[C@@H](CC(C)C)C(=O)N1CCC[C@H]1C(=O)N[C@@H](CC(C)C)C(=O)N[C@@H](CC(C)C)C(=O)O` (H-ALWM[Cit]LLPLL-OH), the IC50 amounted to 69 nM.

The assay is the same for the next values; noted with them: read-out: A*02:01 binding (IC50 nM) Modified.
In the case of `C[C@@H](O)[C@H](NC(=O)[C@H](CCCCN)NC(=O)[C@@H]1CCCN1C(=O)[C@@H](NC(=O)[C@H](Cc1ccc(O)cc1)NC(=O)[C@H](Cc1ccccc1)NC(=O)[C@@H](N)Cc1ccccc1)[C@@H](C)O)C(=O)N[C@@H](CCCNC(N)=O)C(=O)N[C@@H](CCCNC(N)=O)C(=O)N[C@@H](CCC(=O)O)C(=O)O` (H-FFYTPKT[Cit][Cit]E-OH), the IC50 came to 28300 nM. On to `CC(C)[C@H](N)C(=O)N[C@@H](CS)C(=O)NCC(=O)N[C@@H](CCC(=O)O)C(=O)N[C@@H](CCCNC(N)=O)C(=O)NCC(=O)N[C@@H](Cc1ccccc1)C(=O)N[C@@H](Cc1ccccc1)C(=O)N[C@@H](Cc1ccc(O)cc1)C(=O)O` (H-VCGE[Cit]GFFY-OH), for which the IC50 stood at 33500 nM. In the case of `CC(C)C[C@H](NC(=O)[C@H](Cc1c[nH]cn1)NC(=O)[C@@H](N)CCC(N)=O)C(=O)N[C@@H](CS(=O)(=O)O)C(=O)NCC(=O)N[C@@H](CO)C(=O)N[C@@H](Cc1c[nH]cn1)C(=O)N[C@@H](CC(C)C)C(=O)N[C@H](C(=O)O)C(C)C` [QHLBGSHLV] (H-QHL[Cya]GSHLV-OH), the IC50 came out at 37900 nM.

Still in this assay, the particulars now being: read-out: A*02:01 binding (IC50 nM) WT.
For GSLQKRGIV, the IC50 came out at 32700 nM. On the same count and under the same terms, the result for VNQHLCGSHL reads 6640 nM.

For the compound NQHLCGSHLV, the IC50 came to 7990 nM. The same measure, in the same setting: in the case of SLQKRGIVE [SLQKRGIVE] it was 5950 nM.

Staying with this assay, now noted: read-out: IC50 nM, target assay A*02:01.
Regarding ILDKKVEKV [reference compound], the IC50 is 11200 nM. For RLQREWHTL [reference compound], the IC50 is 1230 nM. KLQVFLIVL [reference compound]: the IC50 is 1370 nM. As for `CC[C@H](C)[C@H](NC(=O)[C@H](CC(N)=O)NC(=O)[C@H](C)NC(=O)[C@H](CC(C)C)NC(=O)[C@@H](N)CCCCN)C(=O)N[C@@H](CCC(N)=O)C(=O)N[C@@H](CS)C(=O)N1CCC[C@H]1C(=O)N[C@@H](CS)C(=O)N[C@@H](CC(C)C)C(=O)O` [reference compound] (H-KLANIQCPCL-OH), the IC50 turned out to be 121 nM. In the case of LLPPLLEHL [reference compound], the IC50 was determined as 444 nM. On the same count and under the same terms, in the case of ILAVDGVLSV [reference compound] it was 2.2 nM; in that of NLFLFLFAV [reference compound], 1230 nM. As to SLAAGVKLL [reference compound], the IC50 turned out to be 3690 nM. Turning to SLYHVYEVNL [reference compound], the IC50 came out at 209 nM. Take RLLPLWAALPL [reference compound]: the IC50 amounted to 5.4 nM.

On to ALTAVAEEV [reference compound], for which the IC50 is 1310 nM. Still for that read-out and setting: the result for LIFDLGGGT [reference compound] reads 5420 nM.

As for RLLYPDYQI [reference compound], the IC50 was determined as 124 nM.

Regarding LALWGPDPAA [reference compound], the IC50 is 30300 nM. Regarding KMYAFTLES [reference compound], the IC50 came out at 880 nM. In the case of FLFAVGFYL [reference compound], the IC50 came out at 1.1 nM. Turning to SLSPLQAEL [reference compound], the IC50 stood at 101 nM. NLAQDLATV [reference compound]: the IC50 is 67 nM. The same measure, in the same setting: in the case of SLYQLENYC [reference compound] it was 16900 nM.

As for RLGPVARTRV [reference compound], the IC50 was found to be 581 nM. Same read-out and setting: in the case of LLIDLTSFL [reference compound] it was 8.1 nM.

The same assay, now with this note: unmodified (WT) insulin peptide; competition binding assay; a dash indicates IC50 >40,000 nM; read-out: A*02:01 binding (IC50 nM) WT.
Consider NQHLCGSHL, for which the IC50 is above 40000 nM. Same read-out and setting: in the case of REAEDLQVG it was above 40000 nM; in that of YTPKTRREA, above 40000 nM; in that of VNQHLCGSH, above 40000 nM. Take EGSLQKRGIV: the IC50 is above 40000 nM.

For FFYTPKTRRE, the IC50 was above 40000 nM.

Still in this assay, the particulars now being: unmodified (wild type) insulin-derived peptide; radiolabeled ligand competition, purified MHC, two-day incubation, three or more independent experiments; read-out: A*02:01 binding, WT.
Consider EALYLVCGER, for which the IC50 turned out to be 10100 nM. The same measure, in the same setting: the result for YLVCGERGF reads 6740 nM.

The record behind these values is PMC5863483, “Low HLA binding of diabetes-associated CD8+ T-cell epitopes is increased by post translational modifications” (BMC Immunology, 2018).
